Experimental data: ChEMBL document CHEMBL4651402, “Screening of ~5500 FDA-approved drugs and clinical candidates for anti-SARS-CoV-2 activity” (2021)

Tested on: SARS-CoV-2
Experiment: microbe, parasite or virus in culture
Details: Severe acute respiratory syndrome coronavirus 2, Vero C1008, 48 h

Compound | IC50 [µM] | IC50 (read-out: pIC50 (converted)) [µM]
CCCCN1C[C@H](O)[C@@H](O)[C@H](O)[C@H]1CO | > 20 | > 20
CN(CCCCCCCCCCN(C)C(=O)Oc1cccc([N+](C)(C)C)c1)C(=O)Oc1cccc([N+](C)(C)C)c1 | > 20 | > 20
Nc1ncnc2c([C@@H]3N[C@H](CO)[C@@H](O)[C@H]3O)c[nH]c12 | > 100 | > 100
Cn1cc(-c2cccc3cc(C(=O)NC(=N)N)ccc23)cn1 | > 20 | > 20
C[C@H](CCC(=O)O)[C@H]1CC[C@H]2[C@@H]3[C@@H](O)C[C@@H]4C[C@H](O)CC[C@]4(C)[C@H]3C[C@H](O)[C@]12C | > 20 | > 20
O=C(/C=C/c1ccc(O)cc1)c1ccccc1O | > 20 | > 20
COc1ccc(/C=C/C(=O)/C=C(O)/C=C/c2ccc(OC)c(OC)c2)cc1OC | > 20 | > 20
COC1C(OC(=O)/C=C/C=C/C=C/C=C/C(=O)O)CCC2(CO2)C1C1(C)OC1CC=C(C)C (stereo not drawn) | > 20 | > 20
CC(=O)OC1CC2CCC1(C)C2(C)C (stereo not drawn) | > 20 | > 20
NNC(=O)CN1C(=O)CN=C(c2ccccc2)c2cc(Br)ccc21 | > 20 | > 20
O=C(Nc1cccnn1)N1CCC(=Cc2cccc(Oc3ccc(C(F)(F)F)cn3)c2)CC1 | > 20 | > 20
COC(=O)C1=COC(C)C2CN3CCC4(C(=O)Nc5ccccc54)C3CC12 (stereo not drawn) | > 20 | > 20
CC(=O)N[C@H]1[C@H](O[C@@H]2c3ccc(c(Cl)c3)Oc3cc4cc(c3O[C@@H]3O[C@H](CO)[C@@H](O)[C@H](O)[C@H]3NC(=O)CCCCCCC(C)C)Oc3ccc(cc3Cl)C[C@H]3NC(=O)[C@@H](N)c5ccc(O)c(c5)Oc5cc(O)cc(c5)[C@H](NC3=O)C(=O)N[C@H]4C(=O)N[C@H]3C(=O)N[C@@H]2C(=O)N[C@@H](C(=O)O)c2cc(O)cc(O[C@H]4O[C@H](CO)[C@@H](O)[C@H](O)[C@@H]4O)c2-c2cc3ccc2O)O[C@H](CO)[C@@H](O)[C@@H]1O | > 20 | > 20
CCC[C@]1(c2cccc(O)c2)CCN(C)C[C@@H]1C | > 20 | > 20
NC(CO)Cc1ccccc1 (stereo not drawn) | > 20 | > 20
NC(=O)c1cnc(N[C@@H]2CCCC[C@@H]2N)nc1Nc1cccc(-n2nccn2)c1 | > 20 | > 20
C[C@@H](N)Cc1c[nH]cn1 | > 20 | > 20
Cc1cnc(C(=O)N[C@H]2CCCCC/C=C\[C@@H]3C[C@@]3(C(=O)NS(=O)(=O)C3CC3)NC(=O)[C@@H]3C[C@@H](Oc4nc5ccccc5c5ccccc45)CN3C2=O)cn1 | > 20 | > 20
COc1cc(N2CCC(N(C)C)CC2)ccc1Nc1ncc(Cl)c(Nc2ccccc2P(C)(C)=O)n1 | > 20 | > 20
O=C(Cc1cccc(OC(F)(F)F)c1)Nc1ccc(CCCCc2nnc(NC(=O)Cc3ccccn3)s2)nn1 | > 20 | > 20
O=C1c2ccccc2-c2c1c1ccccc1c(=O)n2CCNCCO | > 20 | > 20
CC(C)CC(NC(=O)C(Cc1ccccc1)NC(=O)CNC(=O)C(C)NC(=O)C(N)Cc1ccc(O)cc1)C(=O)O (stereo not drawn) | > 20 | > 20
Cc1cc(-c2nc(CN3CCNCC3)no2)cc2c1C(=O)N(Cc1ccc(OC(F)(F)F)cc1)C2 | > 20 | > 20
CS(=O)(=O)CCC#N | > 20 | > 20
Nc1ncnc2c1ncn2C1CC(O)C(CO)O1 (stereo not drawn) | > 20 | > 20

Compound | IC50 [µM] | IC50 (read-out: pIC50 (converted)) [µM]
Cc1cc(Nc2ncnc3ccc(-c4ccc(CNCCS(C)(=O)=O)o4)cc23)ccc1Oc1ccn2ncnc2c1 | > 20 | > 20
CC(=O)OCC(=O)[C@@]1(O)CC[C@H]2[C@@H]3CCC4=CC(=O)CC[C@]4(C)C3(F)[C@@H](O)C[C@@]21C (stereo partly drawn) | > 20 | > 20
COC(=O)C1=C(CN2CC(F)(F)C[C@H]2C(=O)O)NC(c2nccs2)=N[C@@]1(C)c1ccc(F)cc1 | > 20 | > 20
CN1CCC2=C[C@H](O)[C@H]3OC(=O)c4cc5c(cc4[C@H]3[C@@H]21)OCO5 | > 20 | > 20
C=C1C(=O)O[C@@H]2[C@H]3O[C@]3(C)CC/C=C(\C)CC[C@@H]12 | > 20 | > 20
CCN1C[C@]2(C)CC[C@H](O)[C@@]34[C@@H]5C[C@H]6[C@H](O)[C@@H]5[C@](O)(C[C@@H]6OC)[C@@H](C[C@H]23)[C@H]14 | > 20 | > 20
COc1ccc2c3c1O[C@H]1[C@@H](O)C=C[C@H]4C(C2)N(C)CCC341 (stereo partly drawn) | > 20 | > 20
CO[C@H]1C(O)C[C@H](O[C@H]2C(O)C[C@H](O[C@H]3C(O)C[C@H](OC4CC[C@@]5(C)C(CCC6C5CC(O)[C@]5(C)[C@@H](C7=CC(=O)OC7)CCC65O)C4)OC3C)OC2C)OC1C (stereo partly drawn) | > 20 | > 20
C[N+](C)(C)CCOP(=O)([O-])OC[C@@H](O)CO | > 20 | > 20
C[C@@](O)(COc1ccc(C#N)cc1)C(=O)Nc1ccc(C#N)c(C(F)(F)F)c1 | > 20 | > 20
CC12C=CC(=O)C=C1CCC1C2C(O)CC2(C)C1CC[C@]2(O)C(=O)COC(=O)CCC(=O)O (stereo partly drawn) | > 20 | > 20
CCN(CC)CC(C)OC(=O)[C@H]1CCCC[C@]1(O)C1CCCCC1 (stereo partly drawn) | > 20 | > 20
CC12C=CC(=O)C=C1CCC1C3CC4Cc5ccccc5CC4(C(=O)CO)C3(C)CC(O)C12F (stereo not drawn) | > 20 | > 20
CC1(O)CCOC(=O)C1 (stereo not drawn) | > 20 | > 20
CN1CC[C@@]23CCCC[C@@H]2C1Cc1ccc(O)cc13 | > 20 | > 20
CCC1=C[C@@H]2CN3CCc4c([nH]c5ccccc45)[C@@](C(=O)OC)(C2)[C@H]13 | > 20 | > 20
C/C=C(\C)C(=O)OC1C(OC(C)=O)C2(CO)C(O)CC3(C)C(=CCC4C5(C)CCC(OC6OC(C(=O)O)C(OC7OC(CO)C(O)C(O)C7O)C(O)C6OC6OC(CO)C(O)C(O)C6O)C(C)(CO)C5CCC43C)C2CC1(C)C (stereo not drawn) | > 20 | > 20
COc1ccc(C(=O)OC2CCC3(C)C4CCC5[C@]6(O)[C@@H](O)C(O)[C@H]7C(CN8CC(C)CC[C@H]8[C@@]7(C)O)[C@@H]6C[C@@]53O[C@]24O)cc1OC (stereo partly drawn) | > 20 | > 20
C=C1[C@@H](O)C2/C=C\C[C@H](C)C(=O)[C@](C)(O)/C=C/[C@@H](OC(C)=O)[C@]23C(=O)N[C@H](Cc2ccccc2)[C@@H]3[C@@H]1C (stereo partly drawn) | > 20 | > 20
CCOC(=O)c1ccc(OCCC2CCN(c3ccc(C)nn3)CC2)cc1 | > 20 | > 20
CCC(=O)N(c1ccc(Cl)c(Cl)c1)[C@@H]1CCC[C@H]1N(C)C | > 20 | > 20
CC/C=C/C/C=C/C/C=C/C/C=C/C/C=C/CCCC(=O)O | > 20 | > 20
CC(=O)Nc1ccc(S(=O)(=O)Nc2ccc([N+](=O)[O-])cc2)cc1 | > 20 | > 20
CC(=O)c1ccc2c(c1)[C@@H]1C=CC[C@@H]1[C@H](c1cc3c(cc1Br)OCO3)N2 | > 20 | > 20
